Legend:
Type in all cases: cell-based, mouse
[1] = system: Stat3 (pY705); experiment: Signaling pathway screen in SMN2-NSC34 cells
[2] = system: ERK1/2 (pT202/pY204); experiment: Signaling pathway screen in SMN2-NSC34 cells
[3] = system: Stat2 (pY705); experiment: Signaling pathway screen in SMN2-NSC34 cells
[4] = system: SMN2; experiment: SMN2 splicing pattern, semi-quantitative RT-PCR in SMA-like MEFs; set-up: key to SMN2 splicing pattern MEF: −: no effect; +: effective; +++: most effective; conditions: SMA-like MEFs; for SMN2 splicing pattern MEF: TSA 10 nM, sodium butyrate 25 mM, aclarubicin 80 nM, sodium vanadate 50 μM; for influence on SMN2 expression: time-course RT-PCR
[5] = system: Stat5 (pT694); experiment: Signaling pathway screen in SMN2-NSC34 cells; set-up: Stat5 (pT694) cellular response: key: −: decreasing; +/−: no activation; +: slight activation; ++: minor activation; +++: significant activation; conditions: SMN2-NSC34 cells; for phosphorylation level of Stat5 increased compared to control cells: treatment for 4 hours, α-tubulin internal control
Method: (§1) Western blot analysis. Cells treated by dsRNA, compounds or Stat5A1*6 transfected were detached by scraping, pelletting and rinsing in PBS. Cell pellets were collected after centrifugation and lysed on ice in modified RIPA buffer (50 mM Tris-HCl (pH7.4), 1% NP-40, 0.25% deoxycholic acid, 0.15M NaCl, 1 mM EDTA, 1 mM PMSF/NaF/sodium orthovanadate, and protease inhibitors cocktail (Roche, Mannheim, Germany) for 30 min. After centrifugation, the supernatants were collected and kept frozen at −20° C. Protein concentrations were determined by Bio-Rad protein assay method. For Western blot analysis, protein samples were boiled for 5 min and electrophoresed on 8% or 10% SDS-polyacrylamide gel in a 1× running buffer (25 mM Tris, 192 mM glycine, 3.4 mM SDS, pH 8.3) and subsequently electrotransferred to Polyvinylidene Fluoride tansfer membrane (Pall, Pensacola, Fla.) using a TE 22 mini-tank transfer unit (Amersham Biosciences, San Francisco, Calif.) at 35 volts overnight in transfer buffer (25 mM Tris, 192 mM glycine, 20% methanol, pH8.3). The blotting membranes were incubated in blocking solution (PBS, 5% non-fat milk, 0.2% Tween-20) for 1 hour at room temperature, and then incubated in the same solution with the primary antibody (human-specific SMN/1:1000; SMN/1:5000, Transduction Laboratories, Lexington, Ky.; phospho-Stat5a/b/1:1000, Cell signaling, Beverly, Mass.; phospho-Jak2/1:1000, Upstate, Lake Placid, N.Y.; Flag BioM2/1:1000, Sigma, St. Louis, MO; c-myc/1:200, Santa Cruz Biotech, Santa Cruz, Calif.; α-Tubilin/1:10000, Upstate, Lake Placid, N.Y., MO), overnight at 4° C. The membranes were washed and incubated in the blocking solution with the proper HRP-conjugated secondary antibody at 1/5000 dilution (Chemicon, Temecula, Calif.) for 1 hour at room temperature. After washing three times in PBS containing 0.1% Tween-20, the signals were visualized by autoradiography (Fuji Medical X-ray film, Fuji Photos, Tokyo) using enhanced chemi-luminescence (ECL detection system; Perkin-Elmer, Boston, Calif.). Western blot quantification was performed by scanning the auto-radiographs with a computerized densitometer. Signal intensities were determined by densitometry analysis (Fuji film LAS-1000 plus pictography) using the program Phoreticx 1D (Phoreticx International).
(§2) Therefore, TSA, aclarubicin and sodium vanadate all induce the activation of Stat5A in motor neuron-like NSC34 cells.

[6] = system: Stat6 (pT641); experiment: Signaling pathway screen in SMN2-NSC34 cells
[7] = system: Jak2 (pY1007/pY1008); experiment: Signaling pathway screen in SMN2-NSC34 cells; conditions: for Jak2 activation: 2-4 hours after treatment; for Jak2 (pY1007/pY1008) cellular response: SMN2-NSC34 cells; for Jak2 (pY1007/pY1008) cellular response: key: −: decreasing; +/−: no activation; +: slight activation; ++: minor activation; +++: significant activation
Method: as §1, §2

[8] = system: P38 (pT180/pY182); experiment: Signaling pathway screen in SMN2-NSC34 cells
[9] = system: Stat1 (pY701); experiment: Signaling pathway screen in SMN2-NSC34 cells
[10] = system: SMN2; experiment: SMN2 splicing pattern, semi-quantitative RT-PCR in SMN2-NSC34 cells; set-up: key to SMN2 splicing pattern SMN2-NSC34: −: no effect; +: effective; +++: most effective; conditions: SMN2-NSC34 cells; TSA 10 nM, sodium butyrate 25 mM, aclarubicin 80 nM, sodium vanadate 100 μM
Method: Cell culture and chemical/dsRNA treatment. Mouse embryonic fibroblasts (MEFs) were prepared using the standard protocol. Briefly, E13.5 day embryo was isolated; the uterine deciduas were cut away, and the yolk sac was removed. The embryo was then scraped out to remove non-fibroblastic tissue, and the head severed for genotyping. Embryo body was minced in 0.25% Trypsin-EDTA and incubated for 30 min. It was then added to MEF culture media, and the cell suspension spun for ˜5 min at 1,000 rpm in the tissue culture centrifuge to pellet cells. The supernatant was aspirated off and the cell pellet immediately resuspended in 10 mL of fresh MEF culture media. The MEFs were allowed to reach confluency so the cells could be passaged for further experiments. Cultured MEFs and SMN2-NSC34 cells were maintained in Dulbecco's modified Eagle medium (Invitrogen, Carlsbad, Calif.) containing 10% heat-inactivated fetal bovine serum (Hyclone, Logan, Utah) and 1% penicillin-streptomycin (Invitrogen, Carlsbad, Calif.) and were incubated at 37° C. in a 5% CO2 humidified atmosphere. The cells were plated the day preceding treatment with each chemical and harvested at the indicated time.
Semi-quantitative PCR/RT-PCR. The genomic DNA from E13.5 SMA embryos was extracted. A specific primer pair, SMN forward 5′-[…]-3′ (SEQ ID NO:21) and SMN backward 5′-[…]-3′ (SEQ ID NO:22), was designed for recognition of both murine Smn and human SMN2. The PCR program initially started with a 95° C. denaturation for 10 min, followed by 19 to 26 cycles of 95° C./1 min. 53° C./1.5 min, 72° C./2 min to assay the linear range for both Smn and SMN2. For RT-PCR assay, total RNA was extracted at indicated time points from SMN2-NSC34 cells with sodium vanadate, TSA, and aclarubicin treatment or with an increasing amount of Stat5A1*6 transfection by using the TRizol reagent (Invitrogen, Carlsbad, Calif.). To amplify the exon7 inclusion/exclusion form of SMN2 transcripts, RT-PCR were performed using a primer set P5P6 as previously described (15). The transcript from the mouse glyceraldehyde-3-phosphate dehydrogenase (Gapdh) gene or the β-Actin gene was amplified using the primer pairs: Gapdh forward: 5′-[…]-3′ (SEQ ID NO:23), and backward: 5′-[…]-3′ (SEQ ID NO:24) (56° C.), and β-Actin forward: 5′-[…]-3′ (SEQ ID NO:25), and backward 5′-[…]-3′ (SEQ ID NO:26) (59° C.), and this allowed control of equal amounts of template. […] The gel images were digitally captured with a CCD camera and analyzed with the Alphalmager™. […] Relative total SMN2 transcript levels were determined from Stat5A1*6 transfected SMN2-NSC34 cells in a minimum of three independent experiments. Differences in ratios were determined to be significant by an independent two-tailed t-test, with *, P<0.05, **, P<0.005, ***, p<0.001.

[11] = system: JNK (pT183/pY185); experiment: Signaling pathway screen in SMN2-NSC34 cells

CC[C@@]1(O)C[C@H](O[C@H]2C[C@H](N(C)C)[C@H](O[C@H]3C[C@H](O)[C@H](O[C@H]4CCC(=O)[C@H](C)O4)[C@H](C)O3)[C@H](C)O2)c2c(cc3c(c2O)C(=O)c2c(O)cccc2C3=O)[C@H]1C(=O)OC [Aclarubicin]
Stat3 (pY705) cellular response ([1]; 4 hrs): +
Stat3 (pY705) cellular response ([1]; 8 hrs): ++
ERK1/2 (pT202/pY204) cellular response ([2]; 4 hrs): +/−
ERK1/2 (pT202/pY204) cellular response ([2]; 8 hrs): +/−
Stat2 (pY705) cellular response ([3]; 4 hrs): +
Stat2 (pY705) cellular response ([3]; 8 hrs): +/−
SMN2 splicing pattern MEF [4]: +
influence on SMN2 expression [4]: found to influence SMN2 expression
Stat5 (pT694) cellular response ([5]; 4 hrs): ++
Stat5 phosphorylation status at 8 hours [5]: remained activated
Stat5 (pT694) cellular response ([5]; 8 hrs): +++
phosphorylation level of Stat5 increased compared to control cells [5]: about 2 fold
Stat6 (pT641) cellular response ([6]; 4 hrs): +/−
Stat6 (pT641) cellular response ([6]; 8 hrs): −
Jak2 activation [7]: found activated
Jak2 (pY1007/pY1008) cellular response ([7]; 4 hrs): +
Jak2 (pY1007/pY1008) cellular response ([7]; 8 hrs): +/−
P38 (pT180/pY182) cellular response ([8]; 4 hrs): +/−
P38 (pT180/pY182) cellular response ([8]; 8 hrs): +/−
Stat1 (pY701) cellular response ([9]; 4 hrs): +/−
Stat1 (pY701) cellular response ([9]; 8 hrs): +/−

CC1=C(/C=C/C(C)=C/C=C/C(C)=C/C(=O)O)C(C)(C)CCC1 [All-trans retinoic acid]
SMN2 splicing pattern MEF [4]: −

NC(=O)NO [Hydroxyurea]
SMN2 splicing pattern MEF [4]: −

CC(=O)N[C@@H](CS)C(=O)O [N-Acetyl-L-cysteine]
SMN2 splicing pattern MEF [4]: −

CCCCCCCCCCCCCC(=O)O[C@@H]1[C@@H](C)[C@@]2(O)[C@@H](C=C(CO)C[C@]3(O)C(=O)C(C)=C[C@@H]23)[C@@H]2C(C)(C)[C@]12OC(C)=O [Phorbol-12-myristate-13-acetate]
SMN2 splicing pattern MEF [4]: −

CCCC(=O)[O-].[Na+] [Sodium butyrate]
SMN2 splicing pattern MEF [4]: +
SMN2 splicing pattern SMN2-NSC34 [10]: +

CC(/C=C/C(=O)NO)=C\[C@@H](C)C(=O)c1ccc(N(C)C)cc1 [Trichostatin A (TSA), Trichostatin A]
Stat3 (pY705) cellular response ([1]; 4 hrs): +
Stat3 (pY705) cellular response ([1]; 8 hrs): ++
ERK1/2 (pT202/pY204) cellular response ([2]; 4 hrs): +
ERK1/2 (pT202/pY204) cellular response ([2]; 8 hrs): +
Stat2 (pY705) cellular response ([3]; 4 hrs): +/−
Stat2 (pY705) cellular response ([3]; 8 hrs): +/−
SMN2 splicing pattern MEF [4]: +
influence on SMN2 expression [4]: found to influence SMN2 expression
Stat5 (pT694) cellular response ([5]; 4 hrs): ++
Stat5 phosphorylation status at 8 hours [5]: remained activated
Stat5 (pT694) cellular response ([5]; 8 hrs): +++
phosphorylation level of Stat5 increased compared to control cells [5]: about 2 fold
Stat6 (pT641) cellular response ([6]; 4 hrs): +/−
Stat6 (pT641) cellular response ([6]; 8 hrs): −
Jak2 activation [7]: found activated
Jak2 (pY1007/pY1008) cellular response ([7]; 4 hrs): +
Jak2 (pY1007/pY1008) cellular response ([7]; 8 hrs): +/−
P38 (pT180/pY182) cellular response ([8]; 4 hrs): +/−
P38 (pT180/pY182) cellular response ([8]; 8 hrs): +
JNK (pT183/pY185) cellular response ([11]; 4 hrs): +/−
JNK (pT183/pY185) cellular response ([11]; 8 hrs): +
Stat1 (pY701) cellular response ([9]; 4 hrs): −
Stat1 (pY701) cellular response ([9]; 8 hrs): −
